Source: patent EP0562849A2, “Steroid derivatives” (priority 1992, dated 1993)
Values joined by “and” are separate entries in the source; they are usually repeats but may differ in a detail not shown here. Identical values can stand only once. Like-named read-outs stand apart in the source and are kept apart here.

Assays:
Syrian Golden hamsters = assay: In vivo serum cholesterol lowering in hamsters fed a cholesterol test diet; conditions: for Serum Cholesterol Mean: 0.2% (w/w) in Cholesterol Test Diet for one week, equivalent to 100 mg/kg/day, groups of six, control mean 337; for inhibition in vivo at 100 mg/kg/day: Mesocricetus auratus, feed or water, 168 h, read-out: Percent Lowering of Cholesterol from Control Value Mean
Method: Syrian Golden hamsters were fed a cholesterol test diet made of 10% coconut oil and 0.12% cholesterol (by weight) in Purina 5001 Rodent Chow to induce hypercholesteriolemia.
After two weeks on the cholesterol test diet the hamsters were bled from the orbital sinium under light CO2 anesthesia. Serum was prepared and analyzed for cholesterol using a commercial test kit (Cholesterol High Performance, Single Vial™, product of Boehringer Mannheim Corp., Indianapolis, IN, USA). The hamsters were separated into groups of six animals, such that each group had approximately the same mean serum cholesterol levels. Selected compounds of the invention were incorporated into the Cholesterol Test Diet at 0.2% (w/w) and fed to the hamsters for one week. A control group of hamsters continued on the Cholesterol Test Diet during the same one-week period. The dose of test compounds of the invention was equivalent to 100 mg/kg/day based on the weight of the hamsters and their diet consumption. Upon completion of the test period, the animals were bled and serum cholesterol determined as above.
Mean serum cholesterol values from the test hamsters were compared to values from the control group and tested for significance at the Z.05 level using Dunnett's test.

[1] = test system: human LDL receptor promoter; assay: in vitro Luciferase Activity Test (LDL receptor promoter-luciferase reporter in recombinant CHO cells); type: cell-based; design: MED: unit not given here
Method: A 1546 base pair sequence of the human LDL receptor promoter was amplified using the polymerase chain reaction. A reaction mixture containing 20 pMoles each of the synthetic oligonucleotides 5'-[…]-3' (Seq. I.D. No: 1) and 5'-AAG-[…]-3', (Seq. I.D. No:2) 1 µg human genomic DNA purified from the adenocarcinoma cell line P3UCLA, 200 µM each of dATP, dGTP, dCTP, and TTP, 2.5 units of Taq DNA polymerase, 10mM Tris-HCI pH 8.3, 50 mM KCI, […], 0.1% gelatin in a final volume of 100 µl was subjected to 30 cycles of 15 sec at 96°C, 30 sec at 55°C, and 1 min at 72°C. The material was subject to gel electrophoresis on a 1% agarose gel and the 1546 base pair band was isolated and restriction enzyme digested with Hind III and Nde I. This fragment was ligated into the plasmid pSP72 (ProMega Biotech), which had previously been restriction enzyme nuclease digested with Hind III and Nde I. The resulting vector, pNLDLRP, was restriction endonulease digested with Ndel and Hind III and the material was again run on a 1% agarose gel to reisolate the 1546 bp LDL receptor sequence.
Plasmid vector PSv2 was constructed by digesting plasmid pSv2-globin with Hind III and Bgl II then ligating an Nrul-Xhol linker into the vector. Plasmid pSv2 globin is disclosed in U.S. Patent No. 4,775,624, the entire teaching of which is herein incorporated by reference. The linker contained the following sequences: [formula] (Seq. I.D. No: 3), and [formula] ' (Seq. I.D. No:4).
The resulting vector was designated pSv2-H NXB because it contained a […], an Nrul site, an Xhol site and a Bgl site. The Hind III-Bgl II fragment of plasmid pAlc4(NRRL B-18783), which contains the firefly luciferase gene, was then ligated into the Hin III-Bgl site of plasmid pSv2-HNXB. A neomycin resistance-conforming gene was then ligated into the Bam HI site of the resultant plasmid to form plasmid pSv2.
A 1546 base pair fragment was isolated and cloned into a Ndel and Hind III (partial) restriction digested vector pSv2 containing the firefly luciferase reporter gene and a gene for neomycin resistance. The resulting vector, pLDL-Luc1 Neo-10, contains the human LDL receptor promoter driving expression of the firefly luciferase gene, a gene coding for neomycin resistance, ampicillin resistant marker and an origin of replication.
Plasmid pLDL-Luc 1 Neo-10 was used to stably transfect Chinese Hamster Ovary cells using a Lipofection Reagent kit and procedure from Gibco BRL Research Products Division Life Technologies Inc. Transformants were selected by picking individual colonies grown in Dulbecco's modified Eagle's medium supplimented with 10% fetal bovine serum and containing 500 µg per ml […]. […] Clone S27/B30 was used for subsequent screening.
In developing a cell based screen it is important to have a negative control. The viral SV40 promoter is ideal for this purpose in that it has a number of SP1 elements that enhance gene transcription. These elements are not under the control of end product repression; but they do have a high degree of sequence homology with the 16 base pair long sterol response element found in the LDL receptor promoter. The SV40 promoter should therefore be a sensitive mechanism to screen out agents that induce nonspecific transcription.
Chinese Hamster Ovary cells were stably cotransfected with a vector pSV2AL-A 5' containing the SV40 promoter driving expression of the firefly luciferase gene and a second vector pSV2 NeoBam containing a neomycin resistant marker. Transfections were carried out using the Lipofectin Reagent kit and procedure from Gibco BRL Research Products Division Life Technologies Inc. Transformants were selected by picking individual colonies grown in Dulbecco's modified Eagle's medium supplemented with 10% fetal bovine serum and containing 500 µg per ml of geneticin. Individual clones were selected, lysed and assayed for luciferase production. […]

[2] = hamsters, 0.2% (w/w) in diet for one week (100 mg/kg/day), negative values = serum cholesterol increased relative to control

Molecule | Serum Cholesterol Mean (Syrian Golden hamsters; hamsters) | Percent Lowering of Cholesterol from Control Value Mean (Syrian Golden hamsters; [2]) | inhibition in vivo at 100 mg/kg/day (Syrian Golden hamsters; [2]) | other results
4a-4-(2-propenyl)cholestan-3-one [Example 72] | 267 mg/dL | 20.8% |  | 
C=CC[C@@H]1[C@H](O)CC[C@@]2(C)[C@H]1CC[C@@H]1[C@@H]2CC[C@]2(C)[C@@H]([C@H](C)CCCC(C)C)CC[C@@H]12 [(4), (3α,4α,5α,20β)-4-(2-propenyl)cholestan-3-ol] | 198 mg/dL | 41.4% |  | 
CC(C)CCC[C@@H](C)[C@H]1CC[C@H]2[C@@H]3CCC4[C@H](Cc5ccccc5)C(=O)CC[C@]4(C)[C@H]3CC[C@]12C (stereo partly drawn) [(5), 4a-benzylcholestan-3-one] | 202 mg/dL | 40.2% |  | 
CC=CC[C@@H]1[C@@H](O)CC[C@@]2(C)[C@H]1CC[C@@H]1[C@@H]2CC[C@]2(C)[C@@H]([C@H](C)CCCC(C)C)CC[C@@H]12 [(12), (3β,4α,5α)-4-(2-butenyl)cholestan-3-ol] | 245 mg/dL |  | 27.4% | 
C=CC[C@H]1C2CC[C@H]3[C@@H]4CC[C@H]([C@@](C)(O)CCCC(C)C)[C@@]4(C)CC[C@@H]3[C@@]2(C)CC[C@H]1O (stereo partly drawn) [(13), (3a,4a)-4-(2-propenyl)cholestane-3,20-diol] | 253 mg/dL |  | 25.1% | 
CC(C)CCC[C@@H](C)[C@H]1CC[C@H]2[C@@H]3CC[C@H]4[C@H](CC=C(Br)Br)[C@H](O)CC[C@]4(C)[C@H]3CC[C@]12C [(14), (3a,4a,5a)-4-(3,3-dibromo-2-propenyl)cholestan-3-ol] | 259 mg/dL |  | 23.2% | 
CC(C)CCC[C@@H](C)[C@H]1CC[C@H]2[C@@H]3CCC4[C@H](Cc5ccccc5)C(=O)CC[C@]4(C)[C@H]3CC[C@]12C (stereo partly drawn) [(19), 4a-benzylcholestan-3-one] | 312 mg/dL | 7.5% |  | 
C=CCC1C(=O)CC[C@@]2(C)C1CC[C@H]1[C@@H]3CC[C@H]([C@H](C)CCCC(C)C)[C@@]3(C)CC[C@@H]12 (stereo partly drawn) [(21), 4-(2-propenyl)cholestan-3-one] | 330 mg/dL |  | 2% | 
CC(C)CCC[C@@H](C)[C@H]1CC[C@H]2[C@@H]3CC[C@H]4C[C@H](O)CC[C@]4(C)[C@H]3CC[C@]12C [(24), 5a-cholestan-3a-ol, reference compound] | 422 mg/dL |  |  | inhibition in vivo at 100 mg/kg/day (Syrian Golden hamsters): -25%
C=CC[C@@H]1[C@@H](O)CC[C@@]2(C)[C@H]1CC[C@@H]1[C@@H]2CC[C@]2(C)[C@@H]([C@H](C)CCCC(C)C)CC[C@@H]12 [Example 80, (3β,4α,5α,20β)-4-(2-propenyl)cholestan-3-ol] | 269 mg/dL |  | 20.2% | 
C=CC[C@@H]1[C@H](OC(=O)CCCCCCCCCCCCCCCCC)CC[C@@]2(C)[C@H]1CC[C@@H]1[C@@H]2CC[C@]2(C)[C@@H]([C@H](C)CCCC(C)C)CC[C@@H]12 [Example 99, (3a,4a,5a)-4-(2-propenyl)cholestan-3-ol octadecanoate (ester)] | 328 mg/dL | 2.7% |  | 
(3β,4α,5α,20β)-4-(2-propenyl)cholestan-3-amine [(22)] | 345 mg/dL | -2.4% |  | 
[4a(E),5α]-4-(2-butenyl)-25-hydroxycholestan-3a-ol [Example 6] |  |  |  | MA% ([1]; maximum activity (%) over control, 15% luciferase activity cutoff point (footnote 2)): 72% and 67%; MED ([1]; minimum effective dose (molar concentration, unit not given), tests using 15% luciferase activity cutoff point (footnote 2), 24 hr, assay medium with 0.5 µg/ml 25-hydroxycholesterol): 21.7; RED ([1]; relative effective dose compared to compound of Example 4, below one = more active, 15% luciferase activity cutoff point (footnote 2)): 0.96 and 1.90
